Assay results from US9642874B2, “Compositions of selenoorganic compounds and methods of use thereof” (Alltech, Inc., priority 2014, dated 2017).

Tests used:
G6pc [1] = experiment: G6pc mRNA expression (QRT-PCR) in AML-12 cells; format: cell-based, mouse; conditions: insulin 10 and 100 nM
Protocol: For RNA analysis of insulin receptor (Insr), insulin like growth factor receptor (Igf1r), and Glucose-6-Phosphatase (G6pc), AML-12 cells were amplified in ITS, Dex and FBS-containing DMEM/F12 media, and cultured on 24-well (6.7×10^4 cells/well) plates in 10% FBS ITS-free DMEM/F12 media with or without Dex overnight. These cells were treated with control (water) or various compounds (diluted in 10% FBS ITS-free DMEM/F12 media with or without Dex) for 6 hours, 24 hours, or 48 hours.
In some experiments, the AML-12 cells were washed twice with PBS after the compound treatments for 24 hours, and then incubated with selenium compounds (150 or 300 ppb of each compound) in the presence or absence of insulin (10 or 100 nM), 0.1 mM 8-CPT (Sigma), or 0.5 μM Dex in serum-free, glucose/phenol red-free DMEM media supplemented with 20 mM lactose and 2 mM pyruvate, and 15 mM HEPES (glucose-production media) for another 6 hours. After treatments, cell media were collected and subjected to glucose assays using Abcam glucose assay kit according to the manufacturer's protocol. […]
Total RNA from these cells was isolated using Trizol (Invitrogen) according to the manufacturer's protocol, and then incubated with DNase I to remove any potential contaminated genomic DNA. […] Three to six samples were analyzed in each treatment group. […]

G6pc [2] = experiment: G6pc mRNA expression (QRT-PCR) in primary mouse hepatocytes; format: cell-based
Protocol: The overnight-acclimated hepatocytes were washed twice with PBS (to remove any residual FBS and other additives in the TRL hepatocyte maintenance medium, pretreated with control (water) or selenium Compounds CDE (150 or 300 ppb of each selenium compound) in DMEM/F12 media supplemented with 10% fetal bovine serum (FBS) for 24 hr. These cells were then washed twice with PBS and incubated with the same dose of selenium Compounds CDE (150 or 300 ppb) in the presence or absence of insulin (10 or 100 nM, Sigma), 0.1 mM 8-CPT (Sigma) or 0.5 μM Dex (Sigma) in serum-free and glucose-free DMEM media (Invitrogen) supplemented with 20 mM lactose (Sigma) and 2 mM pyruvate (Sigma) and 15 mM HEPES (Sigma) for another 6 hours. After treatments, cell media were collected and subjected to glucose assay and toxicological studies of lactate dehydrogenase (LDH) and cells were collected for RNA and protein analysis.
Total RNA from these cells was isolated using Trizol (Invitrogen) according to the Manufacturer's protocol and then incubated with DNase I to remove any potential contaminated genomic DNA. Then RNA samples were subjected to real-time PCR analysis using the Applied-Bioscience's RT kit and predesigned Taqman probes (Invitrogen), as described previously (Lan et al EMBO J 2003). Three to four samples were analyzed in each treatment group. […]

insulin: insulin (10 or 100 nM, Sigma) used as comparator and cotreatment
G6pc expression (G6pc [1]; 6 hours, FBS/ITS/Dex-free media): significantly inhibited G6pc expression | 8-CPT/Dex-induced G6pc expression (G6pc [1]; vs 8-CPT/Dex group): significantly decreased 8-CPT/Dex-induced G6pc expression | 8-CPT/Dex-induced G6pc expression (G6pc [2]; insulin 10 and 100 nM, vs 8-CPT/Dex group): significantly decreased 8-CPT/Dex-induced G6pc expression | G6pc expression (G6pc [2]; insulin alone (10 and 100 nM), 6 hours): significantly inhibited G6pc expression
